Patent US8524716B2, “Macrocyclic indoles as hepatitis C virus inhibitors” (priority 2007, dated 2013)
Read-outs that look alike come from different tables or passages of the source.

Experiments:
[1] = test system: HCV replicons (NS3-NS5B regions of HCV type 1b) in Huh-Luc cells; experiment: HCV replicon assay in Huh-7 luc/neo (Huh-Luc) cells, luciferase readout; type: cell-based; details: three days incubation, luciferase activity
Source text: The compounds of formula (I) were examined for activity in the inhibition of HCV RNA replication in a cellular assay. […] The cellular assay was based on a bicistronic expression construct, as described by Lohmann et al. (1999) Science vol. 285 pp. 110-113 with modifications described by Krieger et al. (2001) Journal of Virology 75: 4614-4624, in a multi-target screening strategy. In essence, the method was as follows.
The assay utilized the stably transfected cell line Huh-7 luc/neo (hereafter referred to as Huh-Luc). This cell line harbors an RNA encoding a bicistronic expression construct comprising the wild type NS3-NS5B regions of HCV type 1b translated from an Internal Ribosome Entry Site (IRES) from encephalomyocarditis virus (EMCV), preceded by a reporter portion (firefly luciferase), and a selectable marker portion (neo^R, neomycine phosphotransferase). The construct is bordered by 5′ and 3′ NTRs (non-translated regions) from HCV type 1b. Continued culture of the replicon cells in the presence of G418 (neo^R) is dependent on the replication of the HCV RNA. The stably transfected replicon cells that express HCV RNA, which replicates autonomously and to high levels, encoding inter alia luciferase, were used for screening the antiviral compounds.
The replicon cells were plated in 384 well plates in the presence of the test and control compounds which were added in various concentrations. Following an incubation of three days, HCV replication was measured by assaying luciferase activity (using standard luciferase assay substrates and reagents and a Perkin Elmer ViewLux™ ultraHTS microplate imager). […] The inhibitory activity of the compound on luciferase activity was monitored on the Huh-Luc cells, enabling a dose-response curve for each test compound. EC50 values were then calculated, which value represents the amount of the compound required to decrease the level of detected luciferase activity by 50%, or more specifically, the ability of the genetically linked HCV replicon RNA to replicate.

HCV NS5B = HCV NS5B (Hepatitis C virus genotype 1b (strain HC-J4), UniProt O92972); experiment: biochemical; type: biochemical
Sequence of HCV NS5B (O92972 2420-3010 limits assumed): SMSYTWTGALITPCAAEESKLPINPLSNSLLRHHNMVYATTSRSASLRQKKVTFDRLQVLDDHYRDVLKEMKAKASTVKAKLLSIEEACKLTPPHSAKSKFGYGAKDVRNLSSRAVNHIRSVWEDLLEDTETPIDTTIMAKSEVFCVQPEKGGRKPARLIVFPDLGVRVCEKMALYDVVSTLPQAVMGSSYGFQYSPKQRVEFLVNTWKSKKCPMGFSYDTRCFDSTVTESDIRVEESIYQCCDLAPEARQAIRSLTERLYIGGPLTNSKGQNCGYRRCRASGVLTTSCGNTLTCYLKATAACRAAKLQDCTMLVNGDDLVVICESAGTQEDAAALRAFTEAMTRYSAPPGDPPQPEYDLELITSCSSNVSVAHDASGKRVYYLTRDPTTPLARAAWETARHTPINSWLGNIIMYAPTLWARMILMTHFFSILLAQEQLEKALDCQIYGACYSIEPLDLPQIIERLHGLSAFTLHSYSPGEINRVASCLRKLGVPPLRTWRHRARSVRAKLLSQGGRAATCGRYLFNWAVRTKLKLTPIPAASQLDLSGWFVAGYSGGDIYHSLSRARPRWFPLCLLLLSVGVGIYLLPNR
Experimental: The cDNA encoding NS5B amino acid 1-570 (HC-J4, genotype 1b, pCV-J4L6S, genebank accession number AF054247) was subcloned into the Nhe I and Xho I restriction sites of pET-21b. Expression of the subsequent His-tagged C-terminal 21 amino acid deleted NS5B was performed as follows:
The NS5B expression construct was transformed into E. coli BL21(DE3) (Novagen, Madison, Wis.). Five milliliters of LB-medium supplemented with ampicillin (50 μg/mL) was inoculated with one colony. When the pre-culture reached an optical density of 0.6 measured at 600 nm, it was transferred to fresh LB-medium supplemented with ampicillin, at a ratio of 1:200. Cells were grown to an optical density at 600 nm of 0.6, after which the expression cultures were shifted to a growth temperature of 20° C. following induction with isopropyl-1-thio-β-D-galactopyranoside and MgCl2 at a final concentration of 0.4 mM and 10 μM, respectively. After ten hours of induction, cells were harvested by centrifugation and resuspended in 20 mM Tris-HCl, pH 7.5, 300 mM NaCl, 10% glycerol, 0.1% NP40, 4 mM MgCl2, 5 mM DTT supplemented with EDTA-free Complete Protease Inhibitor (Roche, Basel, Switzerland). Cell suspensions were disrupted by sonication and incubated with 10-15 mg/L of DNase I (Roche, Basel, Switzerland) for 30 minutes. Cell debris was removed through ultracentrifugation at 30,000×g for 1 hour and clarified cell lysate was flash frozen and stored at −80° C. prior to purification.
Clarified cell lysate was thawed and subsequently loaded onto a 5 mL pre-packed HisTrap FF column equilibrated with 25 mM HEPES, pH 7.5, 500 mM NaCl, 10% glycerol and 5 mM DTT. Proteins were eluted with 500 mM imidazole at a flow rate of 1 mL/min. Fractions containing the protein of interest were applied onto a pre-packed 26/10 HiPrep Desalting Column equilibrated with 25 mM HEPES, pH 7.5, 150 mM NaCl, 10% glycerol and 5 mM DTT. The buffer-exchanged NS5B peak was then applied onto a 20 mL Poly-U Sepharose column. Protein was eluted with an increasing salt gradient and fractions collected. Protein purity was assessed on Nu-PAGE pre-cast gels (Invitrogen, Carlsbad, Calif.). Purified NS5B samples were concentrated using Centri-Prep concentrators (Millipore, Billerica, Mass., USA) and protein concentrations were determined by Bradford assay (Pierce, Rockford, Ill., USA).
Measurement of HCV NS5B polymerization activity was performed by evaluating the amount of radio labeled GTP incorporated by the enzyme in a newly synthesized RNA using heteropolymeric RNA template/primer. The high-throughput RNA dependent RNA polymerase (RdRp) assay was carried out in 384-well plates using 100 nM enzyme, 300 nM 5′-biotinylated oligo(rG13)/poly(rC) primer-template, 600 nM of GTP, and 0.1 μCi of [^3H]GTP in 25 mM Tris-HCl, pH 7.5, 5 mM MgCl2, 25 mM KCl, 17 mM NaCl and 3 mM of dithiothreitol (DTT). Test compounds were dissolved in DMSO. The test compounds were added to the preformed polymerase-template complex, and incubated at room temperature for 15 min before the addition of nucleoside triphosphates (NTP). The 30 μl reaction was terminated after 2 h at 25° C. upon addition of 30 μl A PVT-SPA beads (Amersham Biosciences RPNQ0009, 5 mg/ml in 0.5 M EDTA).

[2] = 100 nM enzyme, [3H]GTP incorporation, 2 h at 25° C., read-out: IC50 (μM) Enzymatic assay

CN1C/C=C\CN(C)S(=O)(=O)NC(=O)c2ccc3c(C4CCCCC4)c(-c4ccc(Cl)cc4)n(c3c2)CC1=O [Cpd 23, 18-(4-Chloro-phenyl)-17-cyclohexyl-4,9-dimethyl-10,10-dioxo-10λ^6-thia-1,4,9,11-tetraaza-tricyclo[11.5.2.016,19]icosa-6,13(20),14,16(19),17-pentaene-3,12-dione]
EC50 ([1]; Hepatitis C virus, Huh-7, 72 h): 1.08 µM | IC50 (HCV NS5B; [2]): 0.45 µM

COc1ccc(-c2c(C3CCCCC3)c3ccc4cc3n2CC(=O)NCCN(C)CCNS(=O)(=O)NC4=O)cc1 [Cpd 27, 18-Cyclohexyl-19-(4-methoxy-phenyl)-7-methyl-11,11-dioxo-11λ^6-thia-1,4,7,10,12-pentaaza-tricyclo[12.5.2.017,20]henicosa-14(21),15,17(20),18-tetraene-3,13-dione]
EC50 ([1]; Hepatitis C virus, Huh-7, 72 h): 3.47 µM | IC50 (HCV NS5B; [2]): 0.44 µM

CS(=O)(=O)N1CCN(c2ccc(N3CCCC3=O)cc2COc2ccc(-c3c(C4CCCCC4)c4ccc5cc4n3CC(=O)NCC/C=C\CCNC5=O)cc2)CC1 [Cpd 12, 17-Cyclohexyl-18-[4-[2-(4-methanesulfonyl-piperazin-1-yl)-5-(2-oxo-pyrrolidin-1-yl)-benzyloxy]-phenyl]-1,4,11-triaza-tricyclo[11.5.2.0^16,19]icosa-7,13(20),14,16(19),17-pentaene-3,12-dione]
EC50 ([1]; Hepatitis C virus, Huh-7, 72 h): 0.27 µM | IC50 (HCV NS5B; [2]): 0.36 µM

O=C1Cn2c(-c3ccc(O)cc3)c(C3CCCCC3)c3ccc(cc32)C(=O)NCCCCCCN1 [Cpd 8]
EC50 [1]: > 32 µM | IC50 (HCV NS5B; [2]): 2.79 µM

17-Cyclohexyl-18-furan-3-yl-9-methyl-10,10-dioxo-10λ^6-thia-1,4,9,11-tetraaza-tricyclo[11.5.2.016,19]icosa-13(20),14,16(19),17-tetraene-3,12-dione [Cpd 28]
EC50 [1]: 1.58 µM

COc1ccc(-c2ccc(Cl)cc2)c(-c2ccc3cc(-c4c(C5CCCCC5)c5ccc6cc5n4CC(=O)NCC/C=C\CCNC6=O)ccc3n2)c1 [Cpd 16, 18-[2-(4′-Chloro-4-methoxy-biphenyl-2-yl)-quinolin-6-yl]-17-cyclohexyl-1,4,11-triaza-tricyclo[11.5.2.0^16,19]icosa-7,13(20),14,16(19),17-pentaene-3,12-dione]
EC50 ([1]; Hepatitis C virus, Huh-7, 72 h): 17.6 µM | IC50 (HCV NS5B; [2]): 1.44 µM

CN1CCCCCNC(=O)Cn2c(-c3ccc(Cl)cc3)c(C3CCCCC3)c3ccc(cc32)C(=O)NS1(=O)=O [Cpd 21, 19-(4-Chloro-phenyl)-18-cyclohexyl-10-methyl-11,11-dioxo-11λ^6-thia-1,4,10,12-tetraaza-tricyclo[12.5.2.017,20]henicosa-14(21),15,17(20),18-tetraene-3,13-dione]
EC50 ([1]; Hepatitis C virus, Huh-7, 72 h): 0.59 µM | IC50 (HCV NS5B; [2]): 0.19 µM

O=C1Cn2c(-c3ccoc3)c(C3CCCCC3)c3ccc(cc32)C(=O)NCC/C=C\CCN1 [Cpd 1, 17-cyclohexyl-18-(furan-3-yl)-1,4,11-triaza-tricyclo-[11.5.2.0^16,19]icosa-7,13(20),14,16(19),17-pentaene-3,12-dione]
EC50 ([1]; Hepatitis C virus, Huh-7, 72 h): 3.4 µM | IC50 (HCV NS5B; [2]): 2.2 µM

O=C1Cn2c(-c3ccc(OCc4cc(N5CCCC5=O)ccc4N4CCOCC4)cc3)c(C3CCCCC3)c3ccc(cc32)C(=O)NCC/C=C\CCN1 [Cpd 11, 17-Cyclohexyl-18-[4-[2-morpholin-4-yl-5-(2-oxo-pyrrolidin-1-yl)-benzyloxy]-phenyl]-1,4,11-triaza-tricyclo[11.5.2.0^16,19]icosa-7,13(20),14,16(19),17-pentaene-3,12-dione]
EC50 ([1]; Hepatitis C virus, Huh-7, 72 h): 0.69 µM | IC50 (HCV NS5B; [2]): 0.45 µM

CS(=O)(=O)N1CCN(c2ccc(N3CCCC3=O)cc2COc2ccc(-c3c(C4CCCCC4)c4ccc5cc4n3CC(=O)NCCC=CCS(=O)(=O)NC5=O)cc2)CC1 [Cpd 14, 17-Cyclohexyl-18-[4-[2-(4-methanesulfonyl-piperazin-1-yl)-5-(2-oxo-pyrrolidin-1-yl)-benzyloxy]-phenyl]-10,10-dioxo-10λ^6-thia-1,4,11-triaza-tricyclo-[11.5.2.0^16,19]icosa-7,13(20),14,16(19),17-pentaene-3,12-dione]
EC50 ([1]; Hepatitis C virus, Huh-7, 72 h): 2.04 µM | IC50 (HCV NS5B): 0.88 µM

CS(=O)(=O)N1CCN(c2ccc(N)cc2COc2ccc(-c3c(C4CCCCC4)c4ccc5cc4n3CC(=O)NCC/C=C\CCNC5=O)cc2)CC1 [Cpd 4, 17-cyclohexyl-18-[4-[2-(4-methanesulfonylpiperazin-1-yl)-5-amino-benzyloxy]phenyl]-1,4,11-triazatricyclo[11.5.2.0^16,19]icosa-7,13(20),14,16(19),17-pentaene-3,12-dione]
EC50 ([1]; Hepatitis C virus, Huh-7, 72 h): 0.24 µM | IC50 (HCV NS5B; [2]): 0.27 µM

Cc1nc(C)c(-c2ccc3cc(-c4c(C5CCCCC5)c5ccc6cc5n4CC(=O)NCC/C=C\CCNC6=O)ccc3n2)s1 [Cpd 17, 17-Cyclohexyl-18-[2-(2,4-dimethyl-thiazol-5-yl)-quinolin-6-yl]-1,4,11-triaza-tricyclo[11.5.2.0^16,18]icosa-7,13(20),14,16(19),17-pentaene-3,12-dione]
EC50 ([1]; Hepatitis C virus, Huh-7, 72 h): 5.39 µM | IC50 (HCV NS5B; [2]): 2.7 µM

CN1C/C=C\CCNC(=O)Cn2c(-c3ccc(Cl)cc3)c(C3CCCCC3)c3ccc(cc32)C(=O)NS1(=O)=O [Cpd 20, 19-(4-Chloro-phenyl)-18-cyclohexyl-10-methyl-11,11-dioxo-11λ^6-thia-1,4,10,12-tetraaza-tricyclo[12.5.2.017,20]henicosa-7,14(21),15,17(20),18-pentaene-3,13-dione]
EC50 ([1]; Hepatitis C virus, Huh-7, 72 h): 0.61 µM

CS(=O)(=O)N1CCN(c2ccc([N+](=O)[O-])cc2COc2ccc(-c3c(C4CCCCC4)c4ccc5cc4n3CC(=O)NCC/C=C\CCNC5=O)cc2)CC1 [Cpd 3, 17-cyclohexyl-18-[4-[2-(4-methanesulfonylpiperazin-1-yl)-5-nitrobenzyloxy]phenyl]-1,4,11-triazatricyclo[11.5.2.0^16,19]icosa-7,13(20),14,16(19),17-pentaene-3,12-dione]
EC50 ([1]; Hepatitis C virus, Huh-7, 72 h): 0.72 µM | IC50 (HCV NS5B; [2]): 1.1 µM

CN1CCCCCNC(=O)Cn2c(-c3ccoc3)c(C3CCCCC3)c3ccc(cc32)C(=O)NS1(=O)=O [Cpd 30, 18-Cyclohexyl-19-furan-3-yl-10-methyl-11,11-dioxo-11λ^6-thia-1,4,10,12-tetraaza-tricyclo[12.5.2.017,20]henicosa-14(21),15,17(20),18-tetraene-3,13-dione]
EC50 ([1]; Hepatitis C virus, Huh-7, 72 h): 0.79 µM

CN1CCCCCNC(=O)Cn2c(-c3ccccc3)c(C3CCCCC3)c3ccc(cc32)C(=O)NS1(=O)=O [Cpd 22, 18-Cyclohexyl-10-methyl-11,11-dioxo-19-phenyl-11λ^6-thia-1,4,10,12-tetraaza-tricyclo[12.5.2.017,20]henicosa-14(21),15,17(20),18-tetraene-3,13-dione]
EC50 ([1]; Hepatitis C virus, Huh-7, 72 h): 0.43 µM
